{"source": "patent US20140314780A1", "about": "“Compositions Using Antibodies Directed to GPNMB and Uses Thereof” (Celldex Therapeutics, Inc., priority 2008, published 2014)", "key": {"[1]": {"test_system": "MART-1, TYRP-2, TYRP-1, PMEL17, MAGEA1, MCSP, MTf, MCAM", "settings": "melanoma cell lines, U0126 20 μM, 48 hours (FIG. 5)", "protocol": "Cells were seeded in 6-well tissue culture dishes at a subconfluent density and allowed to attach overnight. For harvesting cell lysates, media was removed, cells were briefly washed with serum-free media and then 1× Tris-glycine SDS sample buffer (Invitrogen, Carlsbad, Calif.) supplemented with 10 mM dithiothreitol (Sigma) was added directly to the wells. Cell lysates were then collected and boiled for 10 minutes. For preparing conditioned media, drug treatments were performed in a minimum volume of growth media (1.5 mL/well). Following 48 hours of incubation, conditioned media was collected, briefly microfuged, mixed with an equal volume of 2× Tris-glycine SDS sample buffer (Invitrogen, Carlsbad, Calif.) supplemented with 20 mM dithiothreitol (Sigma) and boiled for 10 minutes. For cell lysates, samples were quantified and an equal quantity of protein/lane was resolved on 4-20% gradient polyacrylamide gels (Invitrogen) and then transferred to nitrocellulose filters (Invitrogen). The volume of conditioned media loaded/lane was adjusted based on the protein concentration determined in the respective cell lysates. […]"}, "phospho-ERK (pp-ERK)": {"test_system": "phospho-ERK (pp-ERK)", "experiment": "Immunoblotting for phospho-ERK (level of ERK activation)", "format": "cell-based, human", "description": "In the experiment presented in FIG. 2A, potential inhibition of the ERK pathway was investigated by immunoblotting for phospho-ERK (pp-ERK), which represents the active form of this signaling molecule."}, "GPNMB": {"test_system": "GPNMB", "experiment": "Immunoblotting for GPNMB on whole-cell lysates of cancer cell lines after drug exposure", "format": "cell-based, human", "description": "Cancer cell lines were of human origin and were obtained from the American Type Culture Collection (Manassas, Va.) and from the National Cancer Institute (Bethesda, Md.) and cultured in RPMI-1640 supplemented with 10% FBS (growth media). Sources of reagents were as follows: RAFKi (553013), MEKi (U0126), MEKi (PD98059), MEKi (444939), ERKi (FR180204), p38 MAPKi (SB202190), p38 MAPKi (SB203580), aurora kinase inhibitor (189404), JNK inhibitor (420119), MMPi (GM6001) were from EMD Chemicals (San Diego, Calif.). ERKi (A6355), RAFKi: (GW5074), ammonium chloride (NH4Cl), chloroquine, monensin, cyclohexamide and emetine were from Sigma (Saint Louis, Mo.). HSP90i (geldanamycin) was from AG Scientific (San Diego, Calif.) and imatinib (Gleevec) was purchased from a pharmacy.\nCells were seeded in 6-well tissue culture dishes at a subconfluent density and allowed to attach overnight. For harvesting cell lysates, media was removed, cells were briefly washed with serum-free media and then 1× Tris-glycine SDS sample buffer (Invitrogen, Carlsbad, Calif.) supplemented with 10 mM dithiothreitol (Sigma) was added directly to the wells. Cell lysates were then collected and boiled for 10 minutes. For preparing conditioned media, drug treatments were performed in a minimum volume of growth media (1.5 mL/well). Following 48 hours of incubation, conditioned media was collected, briefly microfuged, mixed with an equal volume of 2× Tris-glycine SDS sample buffer (Invitrogen, Carlsbad, Calif.) supplemented with 20 mM dithiothreitol (Sigma) and boiled for 10 minutes. For cell lysates, samples were quantified and an equal quantity of protein/lane was resolved on 4-20% gradient polyacrylamide gels (Invitrogen) and then transferred to nitrocellulose filters (Invitrogen). The volume of conditioned media loaded/lane was adjusted based on the protein concentration determined in the respective cell lysates. Immunoblotting was performed using standard procedures and the following primary antibodies: MARTI (sc-20032), TYRP2 (sc-25544), TYRP1 (sc-25543), PMEL17 (sc-15010), MAGEA1 (sc-20033), MCSP (sc-20162), MTf (sc-26651), MCAM (sc-18942), pp-ERK (sc-7976) and ERK (sc-94) (preceding antibodies were purchased from Santa Cruz Biotechnologies, Santa Cruz, Calif.), GPNMB (AF2550; R & D Systems, Minneapolis Minn.), actin (A5060; Sigma). Following incubation with the appropriate horseradish peroxidase-conjugated secondary antibodies, enhanced chemiluminescence (GE Healthcare, Chalfont St. Giles, United Kingdom) was used for detection."}}, "data": [{"smiles": "N#CC(=C(/N)Sc1ccccc1N)/C(C#N)=C(\\N)Sc1ccccc1N", "note": "[Mab U0126]", "values": [{"measurement": "expression of MART-1, TYRP-2, TYRP-1, PMEL17", "setting": "[1]", "result": "induced by MEK inhibition in some cell lines"}, {"measurement": "expression of other targets (MAGEA1, MCSP)", "setting": "[1]", "result": "either were not effected or even decreased"}, {"measurement": "inhibition of the ERK pathway (phospho-ERK levels)", "setting": "phospho-ERK (pp-ERK); A375 and SKMEL2 cell lines (FIG. 3B)", "result": "robust and sustained inhibition"}, {"measurement": "inhibition of the ERK pathway (phospho-ERK levels)", "setting": "phospho-ERK (pp-ERK); SF539 cells (FIG. 3B)", "result": "transient inhibition"}, {"measurement": "GPNMB induction (immunoblotting), kinetics and drug concentration", "setting": "GPNMB", "result": "increased with exposure time"}, {"measurement": "GPNMB induction compared to other melanoma-associated proteins", "setting": "GPNMB", "result": "most consistently induced"}]}]}
